Test results as given in patent US20100286145A1, “ISOPHTHALAMIDE DERIVATIVES INHIBITING BETA-SECRETASE ACTIVITY” (CoMentis, Inc., priority 2007, published 2010).

The molecules below were run against memapsin 2 (Homo sapiens, UniProt P56817) (assay: Inhibition of memapsin 2 beta-secretase activity (fluorogenic substrate FS-2)). Conditions: memapsin 2, pH 4, 37° C., 20 minutes pre-incubation; read-out: M2Ki.
Format: biochemical
Experimental: Potency of compounds were determined by measurement of their inhibition of memapsin 2 activity toward a fluorescent substrate. Kinetic inhibition experiments were performed using the procedure as described in Ermolieff, et al. (Biochemistry 39:12450-12456 (2000), the teachings of which are incorporated hereby in their entirety). Briefly, assays were performed at pH 4, 37° C., by pre-incubation of memapsin 2 enzyme with compound for 20 minutes. Activity measurements were initiated by addition of a fluorogenic substrate FS-2 (Bachem Americas, Torrance, Calif.) MCA-SEVNLDAEFR-DNP (SEQ ID NO.: 2). The substrate was derived from 10 amino acids of the human amyloid precursor protein (APP), with the Swedish variant amino acids at the beta-secretase cleavage site. The terminal amino acid was modified from arginine to lysine to facilitate derivatization with a functional group for detection by autofluorescence. The amino acid sequence of the “core” peptide of the substrate is SEVNLDAEFK (SEQ ID NO.: 3). The amino terminus was derivatized with (7-methoxycoumarin-4-yl)acetyl (MCA), and the epsilon amine of the lysine side chain of the terminal residue (K in sequence SEVNLDAEFK (SEQ ID NO.: 3)) was derivatized with 2,4-dinitorphenyl (DNP).
Fluorescent signal increase over time was measured as a rate of hydrolysis of the peptide substrate. Inhibition of hydrolytic rate was expressed relative to uninhibited controls and fit to a model for tight-binding inhibitors (J. Bieth, in “Proteinase Inhibitors,” Bayer Symposium V, 463-469, 1974, which is herein incorporated by reference for all purposes in its entirety).

Sequence of memapsin 2 (P56817 46-501): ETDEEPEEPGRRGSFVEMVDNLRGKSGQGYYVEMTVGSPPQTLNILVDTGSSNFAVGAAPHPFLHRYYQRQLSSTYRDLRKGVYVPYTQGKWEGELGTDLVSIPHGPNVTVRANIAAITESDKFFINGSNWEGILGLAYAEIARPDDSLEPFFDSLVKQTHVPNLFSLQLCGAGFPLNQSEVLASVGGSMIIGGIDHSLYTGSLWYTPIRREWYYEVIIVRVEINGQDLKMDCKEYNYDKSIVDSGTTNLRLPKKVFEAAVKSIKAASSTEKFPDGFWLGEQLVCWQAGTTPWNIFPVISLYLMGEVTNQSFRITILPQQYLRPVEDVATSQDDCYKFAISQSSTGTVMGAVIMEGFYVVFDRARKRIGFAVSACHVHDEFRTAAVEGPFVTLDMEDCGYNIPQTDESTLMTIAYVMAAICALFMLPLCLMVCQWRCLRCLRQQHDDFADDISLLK

Structure (SMILES)	Ki
Cc1csc(CN(C)C(=O)c2cccc(C(=O)N[C@@H](Cc3ccccc3)[C@H](O)CNCc3ccc(C(F)(F)F)nc3)c2)n1 [Compound 7, N1-((2S,3R)-3-hydroxy-1-phenyl-4-((6-(trifluoromethyl)pyridin-3-yl)methylamino)butan-2-yl)-N3-methyl-N3-((4-methylthiazol-2-yl)methyl)isophthalamide]	> 501 nM
Cc1csc(CN(C)C(=O)c2cccc(C(=O)N[C@@H](Cc3ccccc3)[C@H](O)CNCc3ccc(C)c(C)c3)c2)n1 [Compound 13, N1-((2S,3R)-4-(3,4-dimethylbenzylamino)-3-hydroxy-1-phenylbutan-2-yl)-N3-methyl-N3-((4-methylthiazol-2-yl)methyl)isophthalamide]	< 300 nM
COc1cccc(CNC[C@@H](O)[C@H](Cc2ccccc2)NC(=O)c2cccc(C(=O)N(C)Cc3ccco3)c2)c1 [Compound 14, N1-(furan-2-ylmethyl)-N3-((2S,3R)-3-hydroxy-4-(3-methoxybenzylamino)-1-phenylbutan-2-yl)-N1-methylisophthalamide]	> 501 nM
Cc1csc(CN(C)C(=O)c2cccc(C(=O)N[C@@H](Cc3ccccc3)[C@H](O)CNCc3cccnc3)c2)n1 [Compound 15, N1-((2S,3R)-3-hydroxy-1-phenyl-4-(pyridin-3-ylmethylamino)butan-2-yl)-N3-methyl-N3-((4-methylthiazol-2-yl)methyl)isophthalamide]	> 501 nM
CCCN(Cc1nc(C)cs1)C(=O)c1cc(OC)cc(C(=O)N[C@@H](Cc2ccccc2)[C@H](O)CNCc2cccc(OC)c2)c1 [Compound 20, N1-((2S,3R)-3-hydroxy-4-(3-methoxybenzylamino)-1-phenylbutan-2-yl)-5-methoxy-N3-((4-methylthiazol-2-yl)methyl)-N3-propylisophthalamide]	< 300 nM
COc1cccc(CNC[C@@H](O)[C@H](Cc2ccccc2)NC(=O)c2cccc(C(=O)N(C)Cc3nc(C)c(C)s3)c2)c1 [Compound 24, N1-((4,5-dimethylthiazol-2-yl)methyl)-N3-((2S,3R)-3-hydroxy-4-(3-methoxybenzylamino)-1-phenylbutan-2-yl)-N1-methylisophthalamide]	> 501 nM
Cc1csc(CN(C)C(=O)c2cccc(C(=O)N[C@@H](Cc3ccccc3)[C@H](O)CNCc3cccc4ccccc34)c2)n1 [Compound 35, N1-((2S,3R)-3-hydroxy-4-(naphthalen-1-ylmethylamino)-1-phenylbutan-2-yl)-N3-methyl-N3-((4-methylthiazol-2-yl)methyl)isophthalamide]	301 to 500 nM
COC(=O)c1ccc(CNC[C@@H](O)[C@H](Cc2ccccc2)NC(=O)c2cccc(C(=O)N(C)Cc3nc(C)cs3)c2)nc1C [Compound 36, methyl 6-(((2R,3S)-2-hydroxy-3-(3-(methyl((4-methylthiazol-2-yl)methyl)carbamoyl)benzamido)-4-phenylbutylamino)methyl)-2-methylnicotinate]	> 501 nM
Cc1csc(CN(C)C(=O)c2cccc(C(=O)N[C@@H](Cc3ccccc3)[C@H](O)CNCc3ccc(CO)c(C)n3)c2)n1 [Compound 37, N1-((2S,3R)-3-hydroxy-4-((5-(hydroxymethyl)-6-methylpyridin-2-yl)methylamino)-1-phenylbutan-2-yl)-N3-methyl-N3-((4-methylthiazol-2-yl)methyl)isophthalamide]	> 501 nM
COc1cccc(CNC[C@@H](O)[C@H](Cc2ccccc2)NC(=O)c2cc(O)cc(C(=O)N(C)Cc3nc(C)cs3)c2)c1 [Compound 38, 5-hydroxy-N1-((2S,3R)-3-hydroxy-4-(3-methoxybenzylamino)-1-phenylbutan-2-yl)-N3-methyl-N3-((4-methylthiazol-2-yl)methyl)isophthalamide]	< 300 nM
Cc1csc(CN(C)C(=O)c2cccc(C(=O)N[C@@H](Cc3ccccc3)[C@H](O)CNCc3cccc4cc[nH]c34)c2)n1 [Compound 39, N1-((2S,3R)-4-((1H-indol-7-yl)methylamino)-3-hydroxy-1-phenylbutan-2-yl)-N3-methyl-N3-((4-methylthiazol-2-yl)methyl)isophthalamide]	< 300 nM
Cc1csc(CN(C)C(=O)c2cccc(C(=O)N[C@@H](Cc3ccccc3)[C@H](O)CNC(C)c3cccnc3)c2)n1 (stereo partly drawn) [Compound 43, N1-((2S,3R)-3-hydroxy-1-phenyl-4-(1-(pyridin-3-yl)ethylamino)butan-2-yl)-N3-methyl-N3-((4-methylthiazol-2-yl)methyl)isophthalamide]	> 501 nM
COc1cccc(CNC[C@@H](O)[C@H](Cc2ccccc2)NC(=O)c2cccc(C(=O)N(C)Cc3ccccn3)c2)c1 [Compound 45, N1-((2S,3R)-3-hydroxy-4-(3-methoxybenzylamino)-1-phenylbutan-2-yl)-N3-methyl-N3-(pyridin-2-ylmethyl)isophthalamide]	> 501 nM
COc1ccnc(CNC[C@@H](O)[C@H](Cc2ccccc2)NC(=O)c2cccc(C(=O)N(C)Cc3nc(C)cs3)c2)n1 [Compound 48, N1-((2S,3R)-3-hydroxy-4-((4-methoxypyrimidin-2-yl)methylamino)-1-phenylbutan-2-yl)-N3-methyl-N3-((4-methylthiazol-2-yl)methyl)isophthalamide]	> 501 nM
COc1cccc(CNC[C@@H](O)[C@H](Cc2ccccc2)NC(=O)c2cccc(C(=O)N(C)Cc3cccnc3)c2)c1 [Compound 55, N1-((2S,3R)-3-hydroxy-4-(3-methoxybenzylamino)-1-phenylbutan-2-yl)-N3-methyl-N3-(pyridin-3-ylmethyl)isophthalamide]	> 501 nM
COc1cccc(CNC[C@@H](O)[C@H](Cc2ccccc2)NC(=O)c2cc(OC)cc(C(=O)N(CCO)Cc3nc(C)cs3)c2)c1 [Compound 57, N1-((2S,3R)-3-hydroxy-4-(3-methoxybenzylamino)-1-phenylbutan-2-yl)-N3-(2-hydroxyethyl)-5-methoxy-N3-((4-methylthiazol-2-yl)methyl)isophthalamide]	< 300 nM
COC(=O)[C@H](CO)NC(=O)c1cc(C(=O)N[C@@H](Cc2ccccc2)[C@H](O)CNCc2cccc(OC)c2)cc(C(=O)N(C)Cc2nc(C)cs2)c1 [Compound 62, (S)-methyl 3-hydroxy-2-(3-((2S,3R)-3-hydroxy-4-(3-methoxybenzylamino)-1-phenylbutan-2-ylcarbamoyl)-5-(methyl((4-methylthiazol-2-yl)methyl)carbamoyl)benzamido)propanoate]	< 300 nM
COC(=O)[C@@H]1COC(c2cc(C(=O)N[C@@H](Cc3ccccc3)[C@H](O)CNCc3cccc(OC)c3)cc(C(=O)N(C)Cc3nc(C)cs3)c2)=N1 [Compound 63, (S)-methyl 2-(3-((2S,3R)-3-hydroxy-4-(3-methoxybenzylamino)-1-phenylbutan-2-ylcarbamoyl)-5-(methyl((4-methylthiazol-2-yl)methyl)carbamoyl)phenyl)-4,5-dihydrooxazole-4-carboxylate]	> 501 nM
COC(=O)c1coc(-c2cc(C(=O)N[C@@H](Cc3ccccc3)[C@H](O)CNCc3cccc(OC)c3)cc(C(=O)N(C)Cc3nc(C)cs3)c2)n1 [Compound 66, methyl 2-(3-((2S,3R)-3-hydroxy-4-(3-methoxybenzylamino)-1-phenylbutan-2-ylcarbamoyl)-5-(methyl((4-methylthiazol-2-yl)methyl)carbamoyl)phenyl)oxazole-4-carboxylate]	> 501 nM
COc1cccc(CNC[C@@H](O)[C@H](Cc2ccccc2)NC(=O)c2cc(OC)cc(C(=O)N[C@H](C)c3ccccc3)c2)c1 [Compound 69, N1-((2S,3R)-3-hydroxy-4-(3-methoxybenzylamino)-1-phenylbutan-2-yl)-5-methoxy-N3-((R)-1-phenylethyl)isophthalamide]	> 501 nM
CNc1cc(C(=O)N[C@@H](Cc2ccccc2)[C@H](O)CNCc2cccc(OC)c2)cc(C(=O)N(C)Cc2nc(C)cs2)c1 [Compound 76, N1-((2S,3R)-3-hydroxy-4-(3-methoxybenzylamino)-1-phenylbutan-2-yl)-N3-methyl-5-(methylamino)-N3-((4-methylthiazol-2-yl)methyl)isophthalamide]	< 300 nM
COc1cccc(CNC[C@@H](O)[C@H](Cc2ccccc2)NC(=O)c2cccc(C(=O)Nc3nc(C)cs3)c2)c1 [Compound 80, N1-((2S,3R)-3-hydroxy-4-(3-methoxybenzylamino)-1-phenylbutan-2-yl)-N3-(4-methylthiazol-2-yl)isophthalamide]	> 501 nM
COc1cccc(CNC[C@@H](O)[C@H](Cc2ccccc2)NC(=O)c2cccc(C(=O)N(C)c3nc(C)cs3)c2)c1 [Compound 84, N1-((2S,3R)-3-hydroxy-4-(3-methoxybenzylamino)-1-phenylbutan-2-yl)-N3-methyl-N3-(4-methylthiazol-2-yl)isophthalamide]	> 501 nM
CSCc1ccc(CNC[C@@H](O)[C@H](Cc2ccccc2)NC(=O)c2cccc(C(=O)N(C)Cc3nc(C)cs3)c2)nc1C [Compound 87, N1-((2S,3R)-3-hydroxy-4-((6-methyl-5-(methylthiomethyl)pyridin-2-yl)methylamino)-1-phenylbutan-2-yl)-N3-methyl-N3-((4-methylthiazol-2-yl)methyl)isophthalamide]	> 501 nM
